{"source": "PubChem BioAssay (NCI)", "assay_in_all_cases": "NCI-60 cell line screen, 48 h", "key": {"[1]": {"system": "SK-OV-3 ovarian"}, "[2]": {"system": "HCC-2998 colon"}, "[3]": {"system": "MDA-MB-231 breast"}, "[4]": {"system": "UACC-257 melanoma"}, "[5]": {"system": "SF-539 CNS"}, "[6]": {"system": "CCRF-CEM leukemia"}, "[7]": {"system": "SR leukemia"}, "[8]": {"system": "M14 melanoma"}, "[9]": {"system": "OVCAR-8 ovarian"}, "[10]": {"system": "HL-60(TB) leukemia"}, "[11]": {"system": "PC-3 prostate"}, "[12]": {"system": "SN12C renal"}, "[13]": {"system": "UO-31 renal"}, "[14]": {"system": "NCI/ADR-RES ovarian"}, "[15]": {"system": "SNB-19 CNS"}, "[16]": {"system": "EKVX NSCLC"}, "[17]": {"system": "NCI-H522 lung"}, "[18]": {"system": "HOP-62 NSCLC"}, "[19]": {"system": "SK-MEL-2 melanoma"}, "[20]": {"system": "HT29 colon"}, "[21]": {"system": "OVCAR-5 ovarian"}, "[22]": {"system": "KM12 colon"}, "[23]": {"system": "SW-620 colon"}, "[24]": {"system": "OVCAR-4 ovarian"}, "[25]": {"system": "MOLT-4 leukemia"}, "[26]": {"system": "SK-MEL-28 melanoma"}, "[27]": {"system": "HCT-15 colon"}, "[28]": {"system": "HOP-92 NSCLC"}, "[29]": {"system": "ACHN renal"}, "[30]": {"system": "BT-549 breast"}, "[31]": {"system": "UACC-62 melanoma"}, "[32]": {"system": "LOX IMVI melanoma"}, "[33]": {"system": "NCI-H23 lung"}, "[34]": {"system": "SF-268 CNS"}, "[35]": {"system": "MDA-MB-435"}, "[36]": {"system": "RXF 393 renal"}, "[37]": {"system": "HCT-116 colon"}, "[38]": {"system": "NCI-H226 lung"}, "[39]": {"system": "A498 renal"}, "[40]": {"system": "MALME-3M melanoma"}, "[41]": {"system": "786-0 renal"}, "[42]": {"system": "CAKI-1 renal"}, "[43]": {"system": "TK-10 renal"}, "[44]": {"system": "MCF7 breast"}, "[45]": {"system": "DU-145 prostate"}, "[46]": {"system": "SNB-75 CNS"}, "[47]": {"system": "COLO 205 colon"}, "[48]": {"system": "HS 578T breast"}, "[49]": {"system": "T-47D breast"}, "[50]": {"system": "K-562 leukemia"}, "[51]": {"system": "OVCAR-3 ovarian"}, "[52]": {"system": "MDA-MB-468 breast"}, "[53]": {"system": "RPMI-8226 leukemia"}}, "note": "“And” between values parts separate entries of the source, which are not always exact repeats. Equal values may be shown once.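 Test compounds were applied to cells in 96-well plates for 48 hours at 5 doses. GI50 is the concentration that inhibits growth by half. TGI: total growth inhibition.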"}
{"smiles": "COc1cc2cc(C(=O)N3C[C@@H](CCl)c4c3cc(OC(=O)N3CCN(C(=O)CCC(=O)N5CCN(C)CC5)[C@@H]5CSSC[C@@H]53)c3ccccc43)[nH]c2c(OC)c1OC", "values": [{"measurement": "GI50", "setting": "[1]", "result": 72.2, "unit": "nM"}, {"measurement": "TGI", "setting": "[1]", "result": 374, "unit": "nM"}, {"measurement": "GI50", "setting": "[2]", "result": "28.7 nM and 54.2 nM"}, {"measurement": "TGI", "setting": "[2]", "result": "68.5 nM and 188 nM"}, {"measurement": "GI50", "setting": "[3]", "result": "64 nM and 204 nM"}, {"measurement": "TGI", "setting": "[3]", "result": "160 nM and 536 nM"}, {"measurement": "GI50", "setting": "[4]", "result": "131 nM and 273 nM"}, {"measurement": "TGI", "setting": "[4]", "result": "711 nM and 1430 nM"}, {"measurement": "GI50", "setting": "[5]", "result": "38.5 nM and 38.9 nM"}, {"measurement": "TGI", "setting": "[5]", "result": "91.3 nM and 151 nM"}, {"measurement": "GI50", "setting": "[6]", "result": 270, "unit": "nM"}, {"measurement": "TGI", "setting": "[6]", "result": "> 100000", "unit": "nM"}, {"measurement": "GI50", "setting": "[7]", "result": "6.22 nM and 19.5 nM"}, {"measurement": "GI50", "setting": "[8]", "result": "36.6 nM and 124 nM"}, {"measurement": "TGI", "setting": "[8]", "result": "118 nM and 377 nM"}, {"measurement": "GI50", "setting": "[9]", "result": 42.5, "unit": "nM"}, {"measurement": "TGI", "setting": "[9]", "result": 160, "unit": "nM"}, {"measurement": "GI50", "setting": "[10]", "result": "53 nM and 48 nM"}, {"measurement": "TGI", "setting": "[10]", "result": "1090 nM and 2390 nM"}, {"measurement": "GI50", "setting": "[11]", "result": "57.7 nM and 479 nM"}, {"measurement": "TGI", "setting": "[11]", "result": "25000 nM and 10500 nM"}, {"measurement": "GI50", "setting": "[12]", "result": 32.8, "unit": "nM"}, {"measurement": "TGI", "setting": "[12]", "result": 7040, "unit": "nM"}, {"measurement": "GI50", "setting": "[13]", "result": 75, "unit": "nM"}, {"measurement": "TGI", "setting": "[13]", "result": 2840, "unit": "nM"}, {"measurement": "GI50", "setting": "[14]", "result": 64.4, "unit": "nM"}, {"measurement": "TGI", "setting": "[14]", "result": 268, "unit": "nM"}, {"measurement": "GI50", "setting": "[15]", "result": "34 nM and 90.8 nM"}, {"measurement": "TGI", "setting": "[15]", "result": "25000 nM and 16000 nM"}, {"measurement": "GI50", "setting": "[16]", "result": "71.7 nM and 207 nM"}, {"measurement": "TGI", "setting": "[16]", "result": "403 nM and 1380 nM"}, {"measurement": "GI50", "setting": "[17]", "result": "43.5 nM and 55.4 nM"}, {"measurement": "TGI", "setting": "[17]", "result": "114 nM and 364 nM"}, {"measurement": "GI50", "setting": "[18]", "result": 41.3, "unit": "nM"}, {"measurement": "TGI", "setting": "[18]", "result": 231, "unit": "nM"}, {"measurement": "GI50", "setting": "[19]", "result": "47.1 nM and 42.8 nM"}, {"measurement": "TGI", "setting": "[19]", "result": "93.5 nM and 131 nM"}, {"measurement": "GI50", "setting": "[20]", "result": "57.9 nM and 142 nM"}, {"measurement": "GI50", "setting": "[21]", "result": 82.8, "unit": "nM"}, {"measurement": "TGI", "setting": "[21]", "result": 386, "unit": "nM"}, {"measurement": "GI50", "setting": "[22]", "result": "74.7 nM and 131 nM"}, {"measurement": "GI50", "setting": "[23]", "result": 55.5, "unit": "nM"}, {"measurement": "TGI", "setting": "[23]", "result": 25000, "unit": "nM"}, {"measurement": "GI50", "setting": "[24]", "result": 86.3, "unit": "nM"}, {"measurement": "TGI", "setting": "[24]", "result": 662, "unit": "nM"}, {"measurement": "GI50", "setting": "[25]", "result": "12.4 nM and 62.8 nM"}, {"measurement": "TGI", "setting": "[25]", "result": "25000 nM and 4720 nM"}, {"measurement": "GI50", "setting": "[26]", "result": "47.6 nM and 159 nM"}, {"measurement": "TGI", "setting": "[26]", "result": "106 nM and 333 nM"}, {"measurement": "GI50", "setting": "[27]", "result": "65.5 nM and 244 nM"}, {"measurement": "TGI", "setting": "[27]", "result": "1070 nM and 10500 nM"}, {"measurement": "GI50", "setting": "[28]", "result": "95.1 nM and 178 nM"}, {"measurement": "TGI", "setting": "[28]", "result": "875 nM and 752 nM"}, {"measurement": "GI50", "setting": "[29]", "result": 30.5, "unit": "nM"}, {"measurement": "TGI", "setting": "[29]", "result": 93.2, "unit": "nM"}, {"measurement": "GI50", "setting": "[30]", "result": "41 nM and 144 nM"}, {"measurement": "TGI", "setting": "[30]", "result": "132 nM and 413 nM"}, {"measurement": "GI50", "setting": "[31]", "result": "43.6 nM and 136 nM"}, {"measurement": "TGI", "setting": "[31]", "result": "158 nM and 324 nM"}, {"measurement": "GI50", "setting": "[32]", "result": "37.6 nM and 69.2 nM"}, {"measurement": "TGI", "setting": "[32]", "result": "114 nM and 276 nM"}, {"measurement": "GI50", "setting": "[33]", "result": "10.3 nM and 18.6 nM"}, {"measurement": "TGI", "setting": "[33]", "result": "50.5 nM and 88.7 nM"}, {"measurement": "GI50", "setting": "[34]", "result": 58.3, "unit": "nM"}, {"measurement": "TGI", "setting": "[34]", "result": 608, "unit": "nM"}, {"measurement": "GI50", "setting": "[35]", "result": "46.6 nM and 147 nM"}, {"measurement": "TGI", "setting": "[35]", "result": "102 nM and 298 nM"}, {"measurement": "GI50", "setting": "[36]", "result": "37.4 nM and 34.7 nM"}, {"measurement": "TGI", "setting": "[36]", "result": "74.8 nM and 138 nM"}, {"measurement": "GI50", "setting": "[37]", "result": 154, "unit": "nM"}, {"measurement": "TGI", "setting": "[37]", "result": 11600, "unit": "nM"}, {"measurement": "GI50", "setting": "[38]", "result": "453 nM and 245 nM"}, {"measurement": "TGI", "setting": "[38]", "result": "1670 nM and 3180 nM"}, {"measurement": "GI50", "setting": "[39]", "result": "122 nM and 218 nM"}, {"measurement": "TGI", "setting": "[39]", "result": "1400 nM and 471 nM"}, {"measurement": "GI50", "setting": "[40]", "result": "45.9 nM and 134 nM"}, {"measurement": "TGI", "setting": "[40]", "result": "102 nM and 284 nM"}, {"measurement": "GI50", "setting": "[41]", "result": 49, "unit": "nM"}, {"measurement": "TGI", "setting": "[41]", "result": 135, "unit": "nM"}, {"measurement": "GI50", "setting": "[42]", "result": "101 nM and 172 nM"}, {"measurement": "TGI", "setting": "[42]", "result": "1470 nM and 701 nM"}, {"measurement": "GI50", "setting": "[43]", "result": "663 nM and 1050 nM"}, {"measurement": "TGI", "setting": "[43]", "result": "25000 nM and 22200 nM"}, {"measurement": "GI50", "setting": "[44]", "result": 14.9, "unit": "nM"}, {"measurement": "TGI", "setting": "[44]", "result": 1590, "unit": "nM"}, {"measurement": "GI50", "setting": "[45]", "result": "13.6 nM and 24.5 nM"}, {"measurement": "TGI", "setting": "[45]", "result": "25000 nM and 10200 nM"}, {"measurement": "GI50", "setting": "[46]", "result": "41.8 nM and 79.8 nM"}, {"measurement": "TGI", "setting": "[46]", "result": "148 nM and 354 nM"}, {"measurement": "GI50", "setting": "[47]", "result": "49.4 nM and 145 nM"}, {"measurement": "TGI", "setting": "[47]", "result": "133 nM and 315 nM"}, {"measurement": "GI50", "setting": "[48]", "result": "266 nM and 292 nM"}, {"measurement": "TGI", "setting": "[48]", "result": "1830 nM and 2450 nM"}, {"measurement": "GI50", "setting": "[49]", "result": "118 nM and 229 nM"}, {"measurement": "TGI", "setting": "[49]", "result": "25000 nM and 19700 nM"}, {"measurement": "GI50", "setting": "[50]", "result": "122 nM and 89.1 nM"}, {"measurement": "TGI", "setting": "[50]", "result": "25000 nM and 9070 nM"}, {"measurement": "GI50", "setting": "[51]", "result": 53.9, "unit": "nM"}, {"measurement": "TGI", "setting": "[51]", "result": 131, "unit": "nM"}, {"measurement": "GI50", "setting": "[52]", "result": 37.3, "unit": "nM"}, {"measurement": "TGI", "setting": "[52]", "result": 161, "unit": "nM"}, {"measurement": "GI50", "setting": "[53]", "result": "64.6 nM and 142 nM"}, {"measurement": "TGI", "setting": "[53]", "result": "2720 nM and 13200 nM"}]}
